30 compounds from ChEMBL document CHEMBL5360623, “Principles and Applications of CF2X Moieties as Unconventional Halogen Bond Donors in Medicinal Chemistry, Chemical Biology, and Drug Discovery” (J Med Chem, 2023) can be followed below.

The nature of data set [1]: Stability of the compound in PBS buffer assessed as half life at 250 uM at pH 7.4 in presence of GSH by HPLC analysis. The class given is physicochemical. The following applies: pH 7.4, 250 µM.
Data set [2] deals with Mitogen-activated protein kinase 10 (Homo sapiens, UniProt P53779). Nature of the data set: Binding affinity to JNK3 (39 to 402 residues) (unknown origin) expressed in Escherichia coli BL21(DE3) assessed as dissociation constant by isothermal titration calorimetry assay.
Sequence of Mitogen-activated protein kinase 10 (P53779 whole entry, the tested form may be a part): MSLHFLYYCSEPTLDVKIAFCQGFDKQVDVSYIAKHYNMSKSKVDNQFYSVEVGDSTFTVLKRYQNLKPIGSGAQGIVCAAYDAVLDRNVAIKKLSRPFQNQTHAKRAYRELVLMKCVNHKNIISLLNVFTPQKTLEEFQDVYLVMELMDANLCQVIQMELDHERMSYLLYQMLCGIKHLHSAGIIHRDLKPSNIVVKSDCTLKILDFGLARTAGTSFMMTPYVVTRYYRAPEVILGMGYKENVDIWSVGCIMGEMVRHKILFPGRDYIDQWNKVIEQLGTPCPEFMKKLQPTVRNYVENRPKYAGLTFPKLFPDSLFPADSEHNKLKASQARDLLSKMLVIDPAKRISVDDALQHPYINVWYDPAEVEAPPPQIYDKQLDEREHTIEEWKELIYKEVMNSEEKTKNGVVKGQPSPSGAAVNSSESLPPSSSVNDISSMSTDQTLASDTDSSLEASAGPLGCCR
In data set [3] the target is Mitogen-activated protein kinase 8 (Homo sapiens, UniProt P45983). Briefly: Binding affinity to JNK1 (2 to 364 residues) (unknown origin) expressed in Escherichia coli BL21(DE3) assessed as dissociation constant by isothermal titration calorimetry assay.
Sequence of Mitogen-activated protein kinase 8 (P45983 whole entry, the tested form may be a part): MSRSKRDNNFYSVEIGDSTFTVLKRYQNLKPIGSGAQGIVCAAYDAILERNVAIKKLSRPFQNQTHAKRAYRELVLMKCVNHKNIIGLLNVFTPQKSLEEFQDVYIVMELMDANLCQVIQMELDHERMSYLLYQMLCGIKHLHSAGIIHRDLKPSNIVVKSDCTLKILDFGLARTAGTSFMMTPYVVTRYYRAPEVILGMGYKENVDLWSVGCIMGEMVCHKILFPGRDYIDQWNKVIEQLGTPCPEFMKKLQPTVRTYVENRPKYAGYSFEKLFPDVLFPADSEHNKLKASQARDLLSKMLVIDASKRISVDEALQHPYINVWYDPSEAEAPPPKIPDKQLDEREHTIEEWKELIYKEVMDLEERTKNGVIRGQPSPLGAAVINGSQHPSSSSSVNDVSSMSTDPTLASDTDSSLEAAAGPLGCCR

As to `NC(=O)Nc1ccc(OC(F)(F)Cl)cc1`, the t1/2 in data set [1] was greater than 50 days.

In the case of `O=C(Nc1nnc(-c2ccncc2)s1)C(F)(F)I`, the Kd in data set [2] (read-out: Kd) was determined as 13 µM; in data set [3] (read-out: Kd) it was 10 µM.

On to `O=C(Nc1nncs1)C(F)(F)I`, for which the Kd in data set [2] (read-out: Kd) was 186 µM; in data set [3] (read-out: Kd), 104 µM.

Regarding `O=C(Nc1ccc2c(c1)OCO2)C(F)(F)Cl`, the Kd in data set [2] (read-out: Kd) is greater than 1000 µM; in data set [3], “Not Active”. Further, in data set [1], the t1/2 came out at 10.8 days.

As to `Nc1nnc(-c2ccncc2)s1`, the Kd entry is “Not Active” in data set [2] and 162 µM in data set [3] (read-out: Kd).

As to `O=C(Nc1nncs1)C(F)(F)Cl`, the Kd in data set [2] (read-out: Kd) came out at 243 µM; in data set [3] (read-out: Kd), 186 µM.

On to `NC(=O)Nc1ccc(OC(F)(F)I)cc1`, for which the t1/2 in data set [1] was found to be 0.3 days.

Take `O=C(Nc1ccc2c(c1)OCO2)C(F)(F)I`: the Kd result in data set [2] and in data set [3] was “Not Active” throughout. For the same compound, in data set [1], the t1/2 worked out at 12.1 days.

`O=C(Nc1ccc(F)cc1)C(F)(F)Br`: the Kd entry in data set [2] and in data set [3] was “Not Active” each time.

`O=C(Nc1nnc(-c2ccncc2)s1)C(F)(F)Br`: the Kd in data set [2] (read-out: Kd) amounted to 17 µM; in data set [3] (read-out: Kd), 15 µM.

As to `O=C(Nc1ccc2c(c1)OCO2)C(F)(F)F`, the t1/2 in data set [1] turned out to be 5.42 days.

With `O=C(Nc1ccc(Cn2cncn2)cc1)C(F)(F)Br`, the Kd entry in data set [2] and in data set [3] was “Not Active” each time.

Regarding `O=C(Nc1nnc(-c2ccncc2)s1)C(F)(F)Cl`, the Kd in data set [2] (read-out: Kd) was 23 µM; in data set [3] (read-out: Kd) it was 20 µM.

Consider `O=C(c1cnc2ccccn12)C(F)(F)Cl`, for which the Kd in data set [2] (read-out: Kd) and in data set [3] (read-out: Kd) was greater than 1000 µM each time.

For `O=C(Nc1ccc2c(c1)OCO2)C(F)F`, the t1/2 in data set [1] was greater than 50 days.

As for `O=C(Nc1ccc2c(c1)OCO2)C(F)(F)Br`, the Kd in data set [2] (read-out: Kd) and in data set [3] (read-out: Kd) was greater than 1000 µM throughout. In addition, the t1/2 in data set [1] was determined as 11.7 days.

`O=C(Nc1ccc(O)c(O)c1)C(F)(F)Cl`: the Kd entry in data set [2] and in data set [3] was “Not Active” each time.

On to `O=C(c1ccco1)N1CCN(C(=O)C(F)(F)Br)CC1`, for which the Kd entry in data set [2] and in data set [3] was “Not Active” in each case.

As for `CCOC(=O)c1cnn(C)c1NC(=O)C(F)(F)Cl`, the Kd entry in data set [2] and in data set [3] was “Not Active” each time.

As for `COC(=O)c1scc(C)c1NC(=O)C(F)(F)Cl`, the Kd entry in data set [2] and in data set [3] was “Not Active” each time.

For `NC(=O)Nc1ccc(OC(F)F)cc1`, the t1/2 in data set [1] is greater than 50 days.

`O=C(NCCc1c[nH]c2ccccc12)C(F)(F)Cl`: the Kd entry in data set [2] and in data set [3] was “Not Active” in each case.

Regarding `NC(=O)Nc1ccc(NC(=O)C(F)(F)Br)cc1`, the Kd result in data set [2] and in data set [3] was “Not Active” each time.

For the compound `O=C(Nc1cccc2nsnc12)C(F)(F)Br`, the Kd result in data set [2] and in data set [3] was “Not Active” in each case.

As to `NC(=O)Nc1ccc(OC(F)(F)F)cc1`, the t1/2 in data set [1] is greater than 50 days.

As to `O=C(Nc1nncs1)C(F)(F)Br`, the figures for the Kd in data set [2] (read-out: Kd) and in data set [3] (read-out: Kd) were 248 µM and 193 µM, respectively.

In the case of `O=C(Nc1nnc(-c2ccc([N+](=O)[O-])cc2)o1)C(F)(F)Br`, the Kd result in data set [2] and in data set [3] was “Not Active” throughout.

Take `CCOC(=O)c1c(NC(=O)C(F)(F)Br)sc2c1CCCC2`: the Kd result in data set [2] and in data set [3] was “Not Active” throughout.

With `NC(=O)Nc1ccc(OC(F)(F)Br)cc1`, the t1/2 in data set [1] turned out to be 0.221 days.

As to `O=C(Nc1nccs1)C(F)(F)Br`, the Kd in data set [2] (read-out: Kd) and in data set [3] (read-out: Kd) was greater than 1000 µM each time.
